Measured values published in ChEMBL document CHEMBL5661955, “ASAP - In vitro cytotoxicity” (2024).
Values joined by “and” are separate entries in the source; they are usually repeats but may differ in a detail not shown here. Equal entries are not always repeated.

Experiments:
[1] = (§1) Functional CPE-based assay to measure dose dependent changes in cell viability from drug treatment in Vero E6 miRFP670 cells (cotreated with P-gp inhibitor, CP100356). Cells are treated with antiviral candidates that have been serially diluted. Cytotoxicity is reported via analysis of MTS assays in uninfected cells. The assay has been performed by KU Leuven.; assay type: toxicity, Vero C1008; settings: chlorocebus sabaeus
[2] = Functional metabolic assay to measure dose dependent changes in cell viability from drug treatment in Vero E6/TMPRSS2 cells (cotreated with P-gp inhibitor, Elacridar). […] Cytotoxicity is reported via measuring absorbance and analysis of MTT/MTS assays in uninfected cells. The assay has been performed by Icahn School of Medicine at Mount Sinai.; assay type: toxicity, cell-based, VeroE6/TMPRSS2; settings: chlorocebus sabaeus, p-gp concentration 2 uM
[3] = as §1, with “cells.” for “cells (cotreated with P-gp inhibitor, CP100356).”; assay type: toxicity, Vero C1008; settings: chlorocebus sabaeus
[4] = as §1, with “Huh-7 cells.” for “Vero E6 miRFP670 cells (cotreated with P-gp inhibitor, CP100356).”, “of MTT/” for “of”, “National Institute of Allergy and Infectious Diseases.” for “KU Leuven.”; assay type: toxicity; settings: human
[5] = Functional metabolic assay to measure dose dependent changes in cell viability from drug treatment in Vero E6/TMPRSS2 cells. Cells are treated with antiviral candidates that have been serially diluted. Cytotoxicity is reported via measuring absorbance and analysis of MTT/MTS assays in uninfected cells. The assay has been performed by Icahn School of Medicine at Mount Sinai.; assay type: toxicity, cell-based, VeroE6/TMPRSS2; settings: chlorocebus sabaeus; for CC50: Vero E6/TMPRSS2 cells; for CC10: veroe6/tmprss2
[6] = Functional assay to measure dose dependent changes in cell viability from drug treatment in Vero E6 miRFP670 cells (cotreated with P-gp inhibitor, CP100356) that are infected with Dengue virus type 2 New Guinea C. […] Cytotoxicity is reported via via analysis of DAPI count using high-content imager. The assay has been performed by KU Leuven.; assay type: toxicity, cell-based, Vero C1008; settings: chlorocebus sabaeus, p-gp concentration 500 nM
[7] = Vero E6 miRFP670 cells, with CP100356 (P-gp inhibitor, concentration not stated), p-gp concentration 500 nM
[8] = Vero E6/TMPRSS2 cells, with Elacridar (P-gp inhibitor, concentration not stated)
[9] = with CP100356 (P-gp inhibitor, concentration not stated)
[10] = vero c1008, p-gp concentration 500 nM

| Compound | CC50 ([2]; veroe6/tmprss2) | CC50 [4] [µM] | CC50 [2, 8] [µM] | CC50 ([3]; Vero E6 miRFP670 cells) [µM] | CC50 [5] [µM] | CC10 [5] [µM] | CC50 [6, 9] [µM] | other results |
| --- | --- | --- | --- | --- | --- | --- | --- | --- |
| COc1cc(N[C@@H](C(=O)N2CCc3ccc(OC(F)(F)F)cc32)c2ccc(Cl)cc2)cc(OCCCC(=O)O)c1 | > 10 µM and 37.7 µM | 19 | – | – | – | – | – | CC50 [1, 7]: 11.1 µM; CC10 ([2]; veroe6/tmprss2): > 10 µM and 7.237 µM; CC50 ([3]; vero c1008): > 50 µM and 19.7 µM and 11.3 µM |
| CCc1cc(C(=O)Nc2cccc(CN)c2)sc1-c1ccc(Cl)cc1 | – | – | 9.12 | 4.86 | 13.9 | 15.317 | – | CC10 ([2]; veroe6/tmprss2): 0.452 µM |
| Cc1cc(CN)cc(NC(=O)c2cc(Cl)cc(NC(=O)OCc3ccccc3)c2)c1 | 16.6 µM | – | > 10 | – | 7.97 | 8.014 | – | – |
| NCc1cccc(C(=O)Nc2cc(Cl)cc(NC(=O)OCc3ccccc3)c2)c1 | 19.3 µM | – | > 10 | – | 6.67 | 8.366 | – | – |
| O=C(Nc1cc(Cl)cc(C(=O)Nc2cccc(-n3nn[nH]c3=O)c2)c1)OCc1ccccc1 | – | – | – | > 50 | > 50 | > 50 | > 50 | – |
| NCCCc1cccc(NC(=O)c2cc(Cl)cc(NC(=O)OCc3ccccc3)c2)n1 | – | – | 14.9 | 4.43 | 6.18 | 6.788 | – | CC10 ([2]; veroe6/tmprss2): 0.527 µM |
| C#C[C@@]1(O)[C@H](O)[C@@H](CO)O[C@H]1n1ccc2c(N)ncnc21 | – | – | – | > 50 | – | – | > 50 | CC50 [1, 7]: > 50 µM; CC50 [1, 10]: 38 µM; CC50 ([6]; vero c1008): 40.4 µM and 28.2 µM |
| C[C@@]1(O)[C@H](O)[C@@H](CO)O[C@H]1n1ccc2c(N)ncnc21 [BETA-2'-C-METHYL-7-DEAZA-ADENOSINE] | – | – | > 10 | > 50 | > 10 | > 10 | – | CC50 ([1]; vero c1008, p-gp concentration 100 nM): > 50 µM; CC50 [1, 10]: > 200 µM; CC50 ([6]; vero c1008): 24.6 µM and > 200 µM |
| O=C(Nc1cc(Cl)cc(C(=O)Nc2cccc(-c3nnn[nH]3)c2)c1)OCc1ccccc1 | – | – | > 50 | – | > 50 | > 50 | – | CC10 ([2]; veroe6/tmprss2): 0.117 µM |
| CCCCCC(=O)N[C@H](C(=O)NCc1cccc(CN)c1)c1ccc(OCc2ccccc2)cc1 | – | 18 | – | – | – | – | 2.32 | – |
| O=C(O)c1cc2cc(-c3cc(Cl)cc(C4CC4)c3)ccc2[nH]1 | – | – | – | 40.7 | – | – | 26.5 | CC50 [1, 7]: 35.5 µM |
| O=C(O)c1cc(Oc2ccc(F)cc2)c(F)cc1NS(=O)(=O)c1ccc(Oc2ccccc2Cl)cc1 | 44 µM | 20 | > 50 | – | – | – | 5.31 | – |
| Cc1[nH]c2ccccc2c1CN1CCC(c2c[nH]c3ncccc23)CC1 | – | – | > 10 | 25.2 | > 50 | > 50 | 31 | – |
| O=C(Nc1cc(Cl)cc(C(=O)Nc2ccc3c(c2)CNC3)c1)OCc1ccccc1 | > 10 µM and 25.1 µM | – | – | 9.29 | 16.6 | 19.011 | 12.1 | – |
| Cc1ccc(NC(=O)c2cc(Cl)cc(NC(=O)OCc3ccccc3)c2)cc1CN | 15.2 µM | – | 15 | 5.18 | 6.64 | 8.104 | 4.33 | CC50 [1, 7]: 5.8 µM |
| CC[C@@H](Cc1nnn[nH]1)c1ccc(NC(=O)c2cc(Cl)cc(NC(=O)OCc3ccccc3)c2)cc1 | – | – | > 50 | > 50 | > 50 | > 50 | > 50 | CC10 ([2]; veroe6/tmprss2): > 50 µM |
| NCc1cccc(NC(=O)C[C@@H](NC(=O)OCc2ccccc2)c2ccc(OCc3ccccc3)cc2)c1 | – | 6.1 | – | – | – | – | > 10 | – |
| CCCCCC(=O)N[C@H](C(=O)N1CCCCC1)c1ccc(OCc2ccccc2)cc1 | – | 19 | – | – | – | – | > 10 | – |
| CCCCCC(=O)N[C@H](C(=O)Nc1ccc2[nH]ncc2c1)c1ccc(OCc2ccccc2)cc1 | – | 32 | – | – | – | – | > 10 | – |
| O=C1Cc2c(cccc2C(=O)Nc2ccc3c(c2)CNC3)N1 | – | – | – | > 50 | – | – | > 50 | CC50 [1, 7]: > 50 µM |
